Measured values from ChEMBL document CHEMBL3351221, “Synthetic derivatives of aromatic abietane diterpenoids and their biological activities” (Eur J Med Chem, 2014).
Values after ≈ are worked out from the molar mass of the structure shown.

Legend:
Staphylococcus aureus [1] = assay: Antimicrobial activity against methicillin-resistant Staphylococcus aureus; assay type: functional
Enterococcus = assay: Antimicrobial activity against Vancomycin-resistant Enterococcus; assay type: functional
[2] = Cytotoxicity against human HL60 cells; assay type: functional, cell-based; details: HL-60
Mus musculus = assay: Gastroprotective activity in mouse assessed as reduction in HCl/EtOH-induced gastric lesions at 100 mg/kg; assay type: functional; details: Stomach
MRC5 = assay: Cytotoxicity against human MRC5 cells; assay type: cell-based
AGS = assay: Cytotoxicity against human AGS cells; assay type: cell-based
Escherichia coli = assay: Antimicrobial activity against Escherichia coli; assay type: functional
Pseudomonas fluorescens = assay: Antimicrobial activity against Pseudomonas fluorescens; assay type: functional
SMMC-7721 = assay: Cytotoxicity against human SMMC7721 cells; assay type: functional, cell-based
Staphylococcus aureus [3] = assay: Antimicrobial activity against Staphylococcus aureus; assay type: functional
[4] = Cytotoxicity against human Hey-1B cells; assay type: functional, cell-based

CC(C)c1cc2c(cc1O)[C@@]1(C)CCCC(C)(C)[C@@H]1[C@H](O)C2
MIC (Staphylococcus aureus [1]): 4 µg/mL (≈ 13.2 µM)
MIC (Enterococcus): 4 µg/mL (≈ 13.2 µM)

COC(=O)[C@H](C)NC(=O)[C@]1(C)CCC[C@]2(C)c3ccc(C(C)C)cc3CC[C@@H]12
IC50 [2]: 2.3 µM

Cc1cc(C)cc(NC(=O)[C@]2(C)CCC[C@]3(C)c4ccc(C(C)C)cc4CC[C@@H]23)c1
inhibition in vivo at 100 mg/kg (Mus musculus): 67%
IC50 (MRC5): > 1000 µM
IC50 (AGS): > 1000 µM

Cc1ccc(NC(=O)[C@]2(C)CCC[C@]3(C)c4ccc(C(C)C)cc4CC[C@@H]23)cc1
inhibition in vivo at 100 mg/kg (Mus musculus): 67%
IC50 (MRC5): > 1000 µM
IC50 (AGS): > 1000 µM

COc1ccc(NC(=O)[C@]2(C)CCC[C@]3(C)c4ccc(C(C)C)cc4CC[C@@H]23)cc1
inhibition in vivo at 100 mg/kg (Mus musculus): 67%
IC50 (MRC5): > 1000 µM
IC50 (AGS): > 1000 µM

CC(C)c1ccc2c(c1)CC[C@H]1[C@](C)(C(=O)Nc3cccc([N+](=O)[O-])c3)CCC[C@]21C
inhibition in vivo at 100 mg/kg (Mus musculus): 67%
IC50 (MRC5): > 1000 µM
IC50 (AGS): > 1000 µM

CC(C)c1ccc2c(c1)CC[C@H]1[C@](C)(C(=O)Nc3ccccc3Cl)CCC[C@]21C
inhibition in vivo at 100 mg/kg (Mus musculus): 67%
IC50 (MRC5): > 1000 µM
IC50 (AGS): > 1000 µM

CC(C)c1ccc2c(c1)CC[C@H]1[C@](C)(C(=O)Nc3ccc(I)cc3)CCC[C@]21C
inhibition in vivo at 100 mg/kg (Mus musculus): 67%
IC50 (MRC5): > 1000 µM
IC50 (AGS): > 1000 µM

CC(C)c1ccc2c(c1)CC[C@H]1[C@](C)(C(=O)N/N=C/c3ccc(Cl)c([N+](=O)[O-])c3)CCC[C@]21C
MIC (Escherichia coli): 3.9 µg/mL (≈ 8.09 µM)
MIC (Pseudomonas fluorescens): 3.9 µg/mL (≈ 8.09 µM)

CC(C)c1ccc2c(c1)CC[C@H]1[C@](C)(NC(=O)Nc3ccc(F)cc3)CCC[C@]21C
IC50 (SMMC-7721): 8.8 µM

CC(C)c1ccc2c(c1)CC[C@H]1[C@](C)(NC(=O)Nc3cc(F)cc(F)c3)CCC[C@]21C
IC50 (SMMC-7721): 8.8 µM

CC(C)c1ccc2c(c1)CC[C@H]1[C@](C)(NC(=O)N3CCCCC3)CCC[C@]21C
IC50 (SMMC-7721): 8.8 µM

CC(C)c1ccc2c(c1)CC[C@H]1[C@](C)(C/N=C/c3ccc(F)cc3)CCC[C@]21C
IC50 (SMMC-7721): 44.5 µM

COC(=O)C[C@H](NC(=O)[C@]1(C)CCC[C@]2(C)c3ccc(C(C)C)cc3CC[C@@H]12)C(=O)OC
IC50 [2]: 2.3 µM

CCC(C)[C@H](NC(=O)[C@]1(C)CCC[C@]2(C)c3ccc(C(C)C)cc3CC[C@@H]12)C(=O)OC (some centres not stated)
IC50 [2]: 2.3 µM

COC(=O)[C@H](Cc1ccccc1)NC(=O)[C@]1(C)CCC[C@]2(C)c3ccc(C(C)C)cc3CC[C@@H]12
IC50 [2]: 2.3 µM

COC(=O)[C@H](CO)NC(=O)[C@]1(C)CCC[C@]2(C)c3ccc(C(C)C)cc3CC[C@@H]12
IC50 [2]: 2.3 µM

COC(=O)[C@@H](NC(=O)[C@]1(C)CCC[C@]2(C)c3ccc(C(C)C)cc3CC[C@@H]12)C(C)C
IC50 [2]: 2.3 µM

CC(C)c1ccc2c(c1)CC[C@H]1[C@](C)(C[N+](C)(C)C)CCC[C@]21C.COS(=O)(=O)[O-]
MIC (Staphylococcus aureus [3]): 7.81 µg/mL
MIC (Escherichia coli): 250 µg/mL

CC(C)c1ccc2c(c1)CC[C@H]1[C@](C)(CNCCO)CCC[C@]21C.Cl
MIC (Staphylococcus aureus [3]): 7.81 µg/mL
MIC (Escherichia coli): 250 µg/mL

CC(C)c1ccc2c(c1)CC[C@H]1[C@](C)(CNCc3ccccc3)CCC[C@]21C.Cl
MIC (Staphylococcus aureus [3]): 7.81 µg/mL
MIC (Escherichia coli): 250 µg/mL

CC(C)c1ccc2c(c1)CC[C@H]1[C@](C)(C[N+](C)(CCO)CCO)CCC[C@]21C.COS(=O)(=O)[O-]
MIC (Staphylococcus aureus [3]): 7.81 µg/mL
MIC (Escherichia coli): 250 µg/mL

CC(C)c1ccc2c(c1)CC[C@H]1[C@](C)(C[N+](CCO)(CCO)CCO)CCC[C@]21C.[Cl-]
MIC (Staphylococcus aureus [3]): 7.81 µg/mL
MIC (Escherichia coli): 250 µg/mL

CC(C)c1ccc2c(c1)CC[C@H]1[C@](C)(C[N+](CCO)(CCO)Cc3ccccc3)CCC[C@]21C.[Cl-]
MIC (Staphylococcus aureus [3]): 7.81 µg/mL
MIC (Escherichia coli): 250 µg/mL

CC(=O)NC[C@]1(C)CCC[C@]2(C)c3cc(/N=C/c4cc(Br)cc(Br)c4O)c(C(C)C)cc3CC[C@@H]12
IC50 [4]: 15 µg/mL (≈ 24.8 µM)

CC(=O)NC[C@]1(C)CCC[C@]2(C)c3cc(/N=C/c4ccc(O)cc4O)c(C(C)C)cc3CC[C@@H]12
IC50 [4]: 15 µg/mL (≈ 32.4 µM)

CC(=O)NC[C@]1(C)CCC[C@]2(C)c3cc(/N=C/c4cccc(O)c4)c(C(C)C)cc3CC[C@@H]12
IC50 [4]: 15 µg/mL (≈ 33.6 µM)

CC(=O)NC[C@]1(C)CCC[C@]2(C)c3cc(/N=C/c4cc(O)ccc4O)c(C(C)C)cc3CC[C@@H]12
IC50 [4]: 15 µg/mL (≈ 32.4 µM)

COc1ccc(/C=N/c2cc3c(cc2C(C)C)CC[C@H]2[C@](C)(CNC(C)=O)CCC[C@]32C)cc1
IC50 [4]: 15 µg/mL (≈ 32.6 µM)

COc1ccc(NC(=O)[C@]2(C)CCC[C@]3(C)c4ccc(C(C)C)cc4CC[C@@H]23)c(OC)c1
inhibition in vivo at 100 mg/kg (Mus musculus): 67%
IC50 (MRC5): > 1000 µM
IC50 (AGS): > 1000 µM
